One test has as its target T1, Der p 1 (Dermatophagoides pteronyssinus, UniProt P08176).
T1 construct: from tissue; host or cells: spent culture medium of Dermatophagoides pteronyssinus (native HDM extract); ammonium sulfate precipitation, size exclusion, SBTI column, Resource Q
T1 sequence (P08176 99-320): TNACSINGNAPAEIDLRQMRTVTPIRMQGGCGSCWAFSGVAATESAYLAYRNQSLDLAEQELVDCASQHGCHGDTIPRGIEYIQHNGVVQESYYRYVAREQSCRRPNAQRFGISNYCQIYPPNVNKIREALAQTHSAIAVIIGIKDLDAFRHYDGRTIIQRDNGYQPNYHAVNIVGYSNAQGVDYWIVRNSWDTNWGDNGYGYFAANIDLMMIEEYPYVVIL
It counts as biochemical. The following applies: Figure 5A, in words. As for the experimental part:
Assays were assembled in 96-well plate format using a PerkinElmer Multiprobe II Plus HTS EX robot (PerkinElmer, UK). […] Reactions were initiated by the addition of 10 μL Der p 1 dissolved in the reaction buffer at 2.5 μg/mL and followed at 30 °C by measurement of fluorescence (excitation/emission 330/420 nm) using either a Fusion Alpha-FP or Envision plate reader fitted with a temperature-controlled carrier (PerkinElmer, UK).
Inhibitor kinetics were analyzed from progress curves. For reversible inhibitors, IC50 values were calculated conventionally.

A further test concerns unsensitized BN rats. In words: HDM extract challenge in unsensitized (naive) BN rats, duration of protection. It counts as in vivo. The following applies: for performance in vivo (maximum inhibition of the eosinophil response, Figure 5A): focused library, durability of inhibition studies.
Setting [1] is: all other time points than those stated not significant, 50:1 molar equivalents.
Where [2] appears, read: time points other than the stated exceptions, 50:1 molar equivalents i.t. aerosol.
[3] abbreviates: all time points, naive BN rats, HDM extract 10 µg Der p 1, single i.t. aerosol dose 50:1 molar equivalents.
[4] abbreviates: all time points, naive BN rats, HDM extract 10 µg Der p 1, single i.t. aerosol dose 50:1 molar equivalents to Der p 1.

Regarding “3-((3S,6S,9S)-3-benzyl-9-isopropyl-6-methyl-1,4,7,10,11-pentaoxo-1-phenyl-2,5,8,12-tetraazatridecan-13-yl)benzoic acid [Compound 7]”, the “potency against the target molecule in vitro” value (“potency” below) on Der p 1 is reported as “less potent than others”. Besides, the “BAL neutrophil response: significance of effect (P<0.05)” value with unsensitized BN rats (setting [1]) is listed as “significant”; with unsensitized BN rats (pre-treatment at 60 min) it was “not significant”; with unsensitized BN rats (pre-treatment at 120 min) it was “not significant”; in the test on unsensitized BN rats (pre-treatment at 360 min), “not significant”. Also, the “performance in vivo (maximum inhibition of the eosinophil response, Figure 5A)” value in the test on unsensitized BN rats is recorded as “effective”. Also, the “Reduction in BAL eosinophil response: significance of inhibition (P<0.05)” value (shortened to “Reduction … significance of inhibition (P<0.05)”) in the test on unsensitized BN rats (setting [2]) is on record as “significant”.

Take `CC(C)[C@H](NC(=O)[C@H](C)NC(=O)[C@@H](NC(=O)c1ccccc1)C(C)(C)C)C(=O)C(=O)NCC(=O)N1CCc2ccccc2C1` [Compound 3, N-[(S)-1-((S)-1-{(S)-1-[2-(3,4-dihydro-1H-isoquinolin-2-yl)-2-oxo-ethylaminooxalyl]-2-methyl-propylcarbamoyl}-ethylcarbamoyl)-2,2-dimethyl-propyl]-benzamide]: the “BAL neutrophil response: significance of effect (P<0.05)” value in the test with unsensitized BN rats (setting [3]) is “significant”. In addition, the “Reduction … significance of inhibition (P<0.05)” value in the test on unsensitized BN rats (setting [4]) is given as “significant”.

With `CC(C)[C@H](NC(=O)[C@H](C)NC(=O)[C@H](Cc1ccccc1)NC(=O)c1ccccc1)C(=O)C(=O)NCC(=O)N1CC[N+](C)(C)CC1.O=C[O-]` [Compound 4, 4-(2-{(S)-3-[(S)-2-((S)-2-benzoylamino-3-phenyl-propionylamino)-propionylamino]-4-methyl-2-oxo-pentanoylamino}-acetyl)-1,1-dimethyl-piperazin-1-ium formate], at Der p 1, the “potency” value is “less potent than others”. Further, the “BAL neutrophil response: significance of effect (P<0.05)” value with unsensitized BN rats (setting [3]) was “significant”. Moreover, the “Reduction … significance of inhibition (P<0.05)” value in the test with unsensitized BN rats (setting [4]) was “significant”. Further, in the test on unsensitized BN rats, the “performance in vivo (maximum inhibition of the eosinophil response, Figure 5A)” value is given as “effective”.

Consider `CC(C)[C@H](NC(=O)[C@H](C)NC(=O)[C@@H](NC(=O)c1ccnc2ccccc12)C(C)(C)C)C(=O)C(=O)NCc1ccccc1` [Compound 5, quinoline-4-carboxylic acid {(S)-1-[(S)-1-((S)-1-benzylaminooxalyl-2-methyl-propylcarbamoyl)-ethylcarbamoyl]-2,2-dimethyl-propyl}-amide], for which the “potency” value on Der p 1 is recorded as “less potent than others”. Besides, the “BAL neutrophil response: significance of effect (P<0.05)” value in the test with unsensitized BN rats (setting [3]) is “significant”. In addition, the “Reduction … significance of inhibition (P<0.05)” value in the test on unsensitized BN rats (setting [4]) was “significant”. Besides, in the test on unsensitized BN rats (estimated, Figure 5D–F, in words), the “onset: temporal separation between drug dosing and HDM challenge required to achieve 50% inhibition of the eosinophil response” value is listed as “slower onset”. The “performance in vivo (maximum inhibition of the eosinophil response, Figure 5A)” value in the test on unsensitized BN rats is listed as “effective”.

For `CC(C)[C@H](NC(=O)[C@H](C)NC(=O)[C@H](Cc1ccccc1)NC(=O)c1cccc2ccccc12)C(=O)C(=O)NCC(=O)N1CCN(C)CC1` [Compound 8, N-((S)-1-(((S)-1-(((S)-4-methyl-1-((2-(4-methylpiperazin-1-yl)-2-oxoethyl)amino)-1,2-dioxopentan-3-yl)amino)-1-oxopropan-2-yl)amino)-1-oxo-3-phenylpropan-2-yl)-1-naphthamide], on Der p 1, the “potency” value was “less potent than others”. Further, the entries for the “BAL neutrophil response: significance of effect (P<0.05)” value in the test on unsensitized BN rats (setting [1]) and in the test with unsensitized BN rats (pre-treatment at 60 min) were “significant” and “not significant”, respectively. The “Reduction … significance of inhibition (P<0.05)” value with unsensitized BN rats (setting [4]) is listed as “significant”. Also, the “performance in vivo (maximum inhibition of the eosinophil response, Figure 5A)” value with unsensitized BN rats is “effective”.

Regarding `CNC(=O)c1ccc(CNC(=O)C(=O)[C@@H](NC(=O)[C@H](C)NC(=O)[C@@H](N2Cc3ccccc3C2=O)C(C)(C)C)C(C)C)cc1` [Compound 9, 4-[((S)-3-{(S)-2-[(S)-3,3-dimethyl-2-(1-oxo-1,3-dihydro-isoindol-2-yl)-butyrylamino]-propionylamino}-4-methyl-2-oxo-pentanoylamino)-methyl]-N-methyl-benzamide], the “BAL neutrophil response: significance of effect (P<0.05)” value with unsensitized BN rats (setting [3]) is on record as “not significant”. Moreover, the “Reduction … significance of inhibition (P<0.05)” value in the test with unsensitized BN rats (setting [2]) is on record as “significant”.

On to `CC(C)[C@H](NC(=O)[C@H](C)NC(=O)[C@@H](NC(=O)c1ccncc1)C(C)(C)C)C(=O)C(=O)NC1CCCCC1` [Compound 12, N-{(S)-1-[(S)-1-((S)-1-cyclohexylaminooxalyl-2-methyl-propylcarbamoyl)-ethylcarbamoyl]-2,2-dimethyl-propyl}-isonicotinamide], for which, in the test with unsensitized BN rats (setting [4]), the “Reduction … significance of inhibition (P<0.05)” value is reported as “significant”.

In the case of `CC(C)[C@H](NC(=O)[C@H](C)NC(=O)[C@H](Cc1ccccc1)NC(=O)c1ccccc1)C(=O)C(=O)NCC(=O)N1CCOCC1` [Compound 13, N-((S)-1-{(S)-1-[(S)-2-methyl-1-(2-morpholin-4-yl-2-oxo-ethylaminooxalyl)-propylcarbamoyl]-ethylcarbamoyl}-2-phenyl-ethyl)-benzamide], the “Reduction … significance of inhibition (P<0.05)” value in the test on unsensitized BN rats (setting [4]) is “significant”. The “BAL neutrophil response: significance of effect (P<0.05)” value in the test on unsensitized BN rats (pre-treatment at 60 min) and with unsensitized BN rats (pre-treatment at 240 min) was “not significant” throughout.

Regarding `CC(C)[C@H](NC(=O)[C@H](C)NC(=O)[C@@H](NC(=O)c1ccccc1C(=O)O)C(C)(C)C)C(=O)C(=O)NCC(=O)N1CCN(C)CC1` [Compound 14, 2-(((S)-3,3-dimethyl-1-(((S)-1-(((S)-4-methyl-1-((2-(4-methylpiperazin-1-yl)-2-oxoethyl)amino)-1,2-dioxopentan-3-yl)amino)-1-oxopropan-2-yl)amino)-1-oxobutan-2-yl)carbamoyl)benzoic acid], the “BAL neutrophil response: significance of effect (P<0.05)” value in the test with unsensitized BN rats (setting [3]) is reported as “significant”. Further, the “Reduction … significance of inhibition (P<0.05)” value in the test on unsensitized BN rats (setting [4]) was “significant”.

With `CC(C)[C@H](NC(=O)[C@H](C)NC(=O)[C@@H](NC(=O)c1ccccc1)C12CC3CC(CC(C3)C1)C2)C(=O)C(=O)NCC(=O)N1CCN(C)CC1` [Compound 15, N-[(S)-adamantan-1-yl-((S)-1-{(S)-2-methyl-1-[2-(4-methyl-piperazin-1-yl)-2-oxo-ethylaminooxalyl]-propylcarbamoyl}-ethylcarbamoyl)-methyl]-benzamide], in the test with unsensitized BN rats (setting [3]), the “BAL neutrophil response: significance of effect (P<0.05)” value was “significant”. Besides, the “Reduction … significance of inhibition (P<0.05)” value in the test with unsensitized BN rats (setting [4]) is “significant”. For the same molecule, the “performance in vivo (maximum inhibition of the eosinophil response, Figure 5A)” value with unsensitized BN rats is listed as “useful in vivo activity”.

As to “N-((S)-1-(((S)-1-(((S)-1-(cyclohexylamino)-4-methyl-1,2-dioxopentan-3-yl)amino)-1-oxopropan-2-yl)amino)-3,3-dimethyl-1-oxobutan-2-yl)isoquinoline-4-carboxamide [Compound 6]”, the “BAL neutrophil response: significance of effect (P<0.05)” value is given as “significant” with unsensitized BN rats (setting [1]), “not significant” with unsensitized BN rats (pre-treatment at 60 min) and “not significant” in the test on unsensitized BN rats (pre-treatment at 120 min). Further, the “Reduction … significance of inhibition (P<0.05)” value in the test with unsensitized BN rats (setting [2]) is “significant”.

Source of the values: PMC9469500, “Targeting an Initiator Allergen Provides Durable and Expansive Protection against House Dust Mite Allergy” (ACS Pharmacology & Translational Science, 2022).
